Assay results as given in patent publication US20260069696A1, “Combined therapy of photodynamic therapy and immune checkpoint inhibitor” (Shanghai Guang Sheng Pharmaceutical Co., Ltd., priority 2023, published 2026).

Test system: human esophageal cancer Eca-109 nude mouse xenograft tumor
Test: Efficacy of DVDMS-PDT combined with PD-1 antibody in mouse model of human esophageal cancer Eca-109
Type: in vivo, nu/nu nude mice
Conditions: Only received DVDMS-PDT, DVDMS 2 mg/kg, laser 70 J/cm2, Day 21
Description: Example 1. Efficacy of combined therapy of sodium porphyrine-mediated photodynamic therapy (DVDMS-PDT) with PD-1 antibody in a mouse model of human esophageal cancer Eca-109
Purpose: observe the growth-inhibiting effect of DVDMS-PDT combined with PD-1 antibody (Pembrolizumab) on human esophageal cancer Eca-109 nude mouse xenograft tumor, optimize the time window between DVDMS-PDT and PD-1 antibody treatment, and provide a reference for clinical application.
Harvest human esophageal cancer Eca-109 cells at logarithmic growth phase and dilute with culture medium to a cell concentration of 5*10^7 cells/mL, and inoculate subcutaneously at the right thigh root of nude mice at an injection of 0.1 mL per nude mouse. And 7-10 days later, grow the subcutaneous tumor at the root of the thigh on the right side of the nude mouse until the diameter is about 5-8 mm for later use.
Select qualified tumor-bearing mouse models as described above, measure the length and the width of the tumors using a vernier caliper, and stratify and group the mice according to tumor size, with 6 mice in each group. Prepare the sodium porphyrine DVDMS-2 for injection 24 hours before the experiment, and refrigerate in the dark before use. Administer DVDMS-2 via tail vein at a dose of 2 mg/kg body weight (Day-1), followed by PDT treatment 24 hours later (Day 0). […]

C=CC1=C(C)c2cc3[nH]c(cc4nc(cc5[nH]c(cc1n2)c(C)c5C(C)OC(C)C1=C(C)c2cc5[nH]c(cc6nc(cc7[nH]c(cc1n2)c(C)c7CCC(=O)[O-])C(CCC(=O)[O-])=C6C)c(C)c5C=C)C(C)=C4CCC(=O)[O-])c(CCC(=O)[O-])c3C.[Na+].[Na+].[Na+].[Na+] (centres unmarked) [DVDMS-PDT, bis [1-[6,7-sodium dipropionate-1,3,5,8-tetramethyl-2-vinyl-4-porphine]ethyl]ether]
Tumor growth inhibition rate(%): 66.8% | Tumor weight (in g (unit assumed)): 0.43 ± 0.58
